According to paper PMC12603070, “A high-throughput screening approach to discover potential colorectal cancer chemotherapeutics: repurposing drugs to identify novel disruptors of 14-3-3 proteins” (Cell Death & Disease, 2025):
Where two headings read alike, the source gives them in different places.

What was measured:
HT-29 cells = experiment: Hoechst/propidium iodide cell death assay in HT-29; type: cell-based, human; conditions: for cytotoxicity at 20 µM: Homo sapiens; for %Cell death HT-29: time not given
Source text: (§1) A high-content imaging system (PerkinElmer; Operetta CLS), was used to quantify cell death and apoptosis by calculating the number of propidium iodide-positive cells relative to Hoechst-positive cells, and the number of Annexin V-positive cells relative to Hoechst-positive cells, respectively.

[1] = target: T1, 14-3-3ζ:BAD-112-136F interactions (Homo sapiens, UniProt P63104); experiment: BRET sensor screen for disruption of 14-3-3ζ-Rluc8:BAD-112-136F-mCitrine in living NIH-3T3 cells; type: cell-based, murine; design: inhibition: dose or concentration left out as unconfirmed; BRET reduction on NIH-3T3: unit not given here; conditions: for inhibition / BRET reduction on NIH-3T3: NIH-3T3 cells, hits from the primary screen; for inhibition / inhibition at 20 µM: read-out: BRET reduction on NIH-3T3
T1 construct: expressed in transfected cells; host or cells: NIH-3T3 fibroblasts, bi-directional pBI-CMV1 plasmid
T1 sequence (P63104 1-245): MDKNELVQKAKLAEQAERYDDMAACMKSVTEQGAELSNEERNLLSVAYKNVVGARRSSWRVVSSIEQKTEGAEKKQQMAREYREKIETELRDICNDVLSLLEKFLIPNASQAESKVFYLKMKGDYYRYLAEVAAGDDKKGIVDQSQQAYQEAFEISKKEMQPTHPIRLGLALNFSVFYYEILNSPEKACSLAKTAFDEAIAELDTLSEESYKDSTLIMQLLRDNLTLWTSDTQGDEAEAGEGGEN
In short: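 NIH-3T3 cells were transfected with the BRET sensor two days beforehand, then replated on poly-L-ornithine-coated plates and grown 24 h at 37 °C. Medium was then replaced with Krebs buffer (pH 7.4). Z′-score was calculated to judge HTS robustness.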

Caco-2 cells = type: cell-based; conditions: for Percentage of cell death % 24h CACO-2: 20 µM; for Percentage of cell death % 48h, Caco-2: 20 μM
Source text: as §1

NIH-3T3 cells = experiment: Hoechst/propidium iodide cell death assay in NIH-3T3; type: cell-based; conditions: for cytotoxicity at 20 µM: Mus musculus, NIH3T3, 24 h, read-out: Percentage of cell death % 24h NIH3t3
Source text: as §1

[2] = HT-29, 24 h, 20 µM, 24 h, read-out: Percentage of cell death % 24h HT-29
[3] = HT-29, 48 h, HT-29, 48h, 20 μM, read-out: Percentage of cell death % 48h, HT-29
[4] = NIH3T3, 3 h, NIH-3T3 expressing BRET sensor, 20 µM, 3 h
[5] = HT-29, 24 h, read-out: Percentage of cell death % 24h HT-29
[6] = HT-29, 48 h, read-out: Percentage of cell death % 48h, HT-29

Row | Compound | cytotoxicity at 20 µM (HT-29 cells; [2]) [%] | cytotoxicity at 20 µM (HT-29 cells; [3]) [%] | inhibition ([1]; NIH3T3, 3 h) [%] | inhibition at 20 µM [1, 4] [%] | Percentage of cell death % 24h CACO-2 (Caco-2 cells) [%] | Percentage of cell death % 48h, Caco-2 (Caco-2 cells) [%] | cytotoxicity at 20 µM (NIH-3T3 cells; 20 µM, 24 h) [%] | Percentage of cell death % 48h, NIH3T3 (NIH-3T3 cells) [%] | cytotoxicity at 20 µM (HT-29 cells; [5]) [%] | cytotoxicity at 20 µM (HT-29 cells; [6]) [%] | inhibition at 20 µM ([1]; NIH3T3, NIH-3T3 expressing BRET sensor, 20 µM, 3 h) [%] | BRET reduction on NIH-3T3 [1] | cytotoxicity at 20 µM (NIH-3T3 cells) [%] | inhibition at 20 µM ([1]; NIH3T3, 3 h) [%] | %Cell death HT-29 (HT-29 cells; HT-29) [%] | %Cell death Caco-2 (Caco-2 cells) [%]
1 | Clc1ccc(C(Cn2ccnc2)OCc2c(Cl)cccc2Cl)c(Cl)c1 (centres unmarked) [Isoconazole nitrate] | 1.88 | 3.88 | 45.1 | 45.1 | 5.943 | 5.407 | 8.57 | 4.218 | – | – | – | – | – | – | – | –
2 | Cc1ccc(C(=O)N(CCCN)[C@@H](c2nc3cc(Cl)ccc3c(=O)n2Cc2ccccc2)C(C)C)cc1 [Ispinesib (SB-715992), Ispinesib] | – | – | – | – | 86.1725 | 89.1796 | – | 78.7121 | 50.8 | 86.7 | 44.1 | 44.0919 | 87.5 | – | – | –
3 | CC(C)(C)c1cc(C(C)(C)C)c(NC(=O)c2c[nH]c3ccccc3c2=O)cc1O [Ivacaftor (VX-770), Ivacaftor] | 9.35 | 60.7 | 39 | 39 | 14.0443 | 14.6425 | 7.87 | 12.0089 | – | – | – | – | – | – | – | –
4 | Cc1cc(Nc2cc(CN3CCOCC3)c3nc(C)c(Cc4ccc(Cl)cc4F)n3n2)n[nH]1 [LY2784544] | 6.62 | 55.6 | 36.5 | 36.5 | 12.6848 | 17.5299 | 62.8 | 50.4683 | – | – | – | – | – | – | – | –
5 | CCOC(=O)C1=C(C)NC(C)=C(C(=O)OCC)C1c1ccccc1/C=C/C(=O)OC(C)(C)C [Lacidipine] | 1.94 | 2.6 | 27.1 | 27.1 | 4.66 | 4.938 | 0.275 | 0.2227 | – | – | – | – | – | – | – | –
6 | CC(C)OC(=O)CCC/C=C\C[C@@H]1[C@@H](CC[C@@H](O)CCc2ccccc2)[C@H](O)C[C@@H]1O [Latanoprost] | 0.702 | 1.45 | 29.5 | 29.5 | 2.638 | 2.117 | 1.31 | 0.6511 | – | – | – | – | – | – | – | –
7 | C[C@H](CCC(=O)O)[C@H]1CC[C@H]2[C@@H]3CC[C@@H]4C[C@H](O)CC[C@]4(C)[C@H]3CC[C@]12C [Lithocholic Acid] | 0.614 | 2.06 | 40.1 | 40.1 | 2.024 | 1.756 | 2.68 | 0.3149 | – | – | – | – | – | – | – | –
8 | CCOC(=O)N1CCC(=C2c3ccc(Cl)cc3CCc3cccnc32)CC1 [Loratadine] | 0.925 | 3.3 | 25.5 | 25.5 | 3.76 | 3.356 | 9.83 | 16.5359 | – | – | – | – | – | – | – | –
9 | C=C[C@@H]1C[C@]1(NC(=O)[C@@H]1C[C@@H]2CN1C(=O)[C@H](C(C)(C)C)NC(=O)O[C@@H]1C[C@H]1CCCCCc1nc3ccc(OC)cc3nc1O2)C(=O)NS(=O)(=O)C1CC1 [MK-5172] | 0.694 | 2.55 | 33.9 | 33.9 | 2.115 | 2.005 | 0.421 | 0.3254 | – | – | – | – | – | – | – | –
10 | C=CCc1ccc(O)c(-c2cc(CC=C)ccc2O)c1 [Magnolol] | – | – | – | – | 16.7853 | 10.8986 | – | 6.55 | 15.8 | 20.3 | – | 33.2336 | 15.7 | 33.2 | – | –
11 | CO/N=C1\C[C@]2(C[C@@H]3C[C@@H](C/C=C(\C)C[C@@H](C)/C=C/C=C4\CO[C@@H]5[C@H](O)C(C)=C[C@@H](C(=O)O3)[C@]45O)O2)O[C@H](/C(C)=C/C(C)C)[C@H]1C [Moxidectin] | 8.61 | 78.4 | 44 | 44 | – | – | 80.7 | 68.7026 | – | – | – | – | – | – | 78.4 | 8.4
12 | OC(CNCC(O)C1CCc2cc(F)ccc2O1)C1CCc2cc(F)ccc2O1 (centres unmarked) [Nebivolol] | 9.8 | 67.3 | 34.7 | 34.7 | – | – | 64.6 | 64.5697 | – | – | – | – | – | – | 67.3 | 45.0
13 | CN(C(=O)CN(CCO)CC(=O)N(C)C(C)(C)Cc1ccccc1)C(C)(C)Cc1ccccc1 [Oxethazaine] | 3.21 | 53.1 | 28.9 | 28.9 | – | – | 28.2 | 9.9556 | – | – | – | – | – | – | 53.1 | 13.9
14 | CC(C)Oc1ccc(-c2nc(-c3cccc4c3CC[C@@H]4NCCO)no2)cc1C#N [Ozanimod (RPC1063), Ozanimod] | 1.29 | 3.92 | 29.4 | 29.4 | 10.8525 | 17.0415 | 89.9 | 87.9452 | – | – | – | – | – | – | – | –
15 | O=c1[nH]c2ccccc2n1C1CCN(CCCC(c2ccc(F)cc2)c2ccc(F)cc2)CC1 [Pimozide] | 11 | 64.6 | – | – | – | – | 65.9 | 78.5926 | – | – | – | 38.4171 | – | 38.4 | 64.6 | 59.9
16 | Cc1ccc(C(=O)Nc2ccc(CN3CCN(C)CC3)c(C(F)(F)F)c2)cc1C#Cc1cnc2cccnn12 [Ponatinib (AP24534), Ponatinib] | – | – | – | – | 28.4678 | 42.5244 | – | 54.2208 | 56.7 | 83.2 | – | 44.6783 | 73.5 | 44.7 | – | –
